In patent US20230097753A1, “ALPHA-HYDROXYLATED FATTY-ACID METABOLITES, MEDICAL USES AND USE AS BIOMARKERS” (UNIVERSITAT DE LES ILLES BALEARS, priority 2020, published 2023):

Tested on: HEK293T cells
Assay: Metabolic conversion and uptake of 2-hydroxylated fatty acids in HEK293T cell cultures
Assay type: in vitro ADME, human
Protocol: To describe the metabolic conversion of DHA-H to HPA(C21:5 ω-3), as well as the conversion of LA-H to HDA (C17:2 ω-6), ALA-H to HTA ω-3 (C17:3 ω-3), GLA-H to HTA ω-6 (C17:3 ω-6), ARA-H to NTA (C19:4 ω-6), EPA-H to NPA (C19:5 ω-3), HEK293T (Human Embryonic Kidney Cells 293T) cell cultures were employed, which is an embryonic, non-tumoral cell line, widely used in human metabolism studies under physiological conditions.
HEK293T cells were cultured in Dulbecco's Modified Eagle's Medium (DMEM; Dubelcco's Modified Eagle's Medium, Biowest, France), supplemented with 10% FBS (Fetal Bovine Serum; Gibco, Thermo-Fisher), 2 mM L-Gln, 25 mM D(+)-glucose, 1 mM sodium pyruvate, and penicillin/streptomycin. Mouse neuroblastoma N2a cells were maintained in a 1:1 (v:v) mixture of DMEM and Opti-Mem (Gibco, Thermo-Fisher), supplemented with 5% FBS and penicillin/streptomycin. Both cell lines were incubated in an atmosphere of 5% CO2 at 37° C.
HEK293T cells were incubated with DHA-H and DHA at 10, 30 and 100 μM for 24 hours, and at 30 μM for 6, 48 and 72 hours. These cells were also incubated with LA-H, ALA-H, GLA-H, ARA-H and EPA-H at 100 μM for 24 hours. HEK293T cells were also incubated with oxythiamine in the presence of DHA-H under the same conditions, at final oxythiamine concentrations of 1 and 10 mM. The HEK293T cells were separated from the plates by pipettes with cold phosphate buffer saline solution (PBS). Cells were recovered by centrifugation (1000 xg, 10 min at 4° C.) and washed twice with cold PBS before being frozen at −80° C. To analyze DHA-H and DHA levels in the cell culture medium, 90 mm diameter plates were filled with 11 mL of complete cell culture medium containing 30 μM DHA-H or DHA in the presence or absence of attached HEK293T cells (5.10^5 cells/plate). The plates were incubated as described above and 1 ml aliquots of the plates were collected at 0, 6, 24, 48 and 72 hours. Aliquots of the cell culture medium were immediately centrifuged at 1000×g for 10 min at 4° C. to remove any cell suspension and the cell-free aliquots were stored at -20° C.
The cell lysates were subjected to ultrasound pulses (4 cycles, 10 s/cycle, 10 W) before lipid extraction. For brain analysis, the tissue of each animal was homogenized in cold PBS at 1:10 (p:v) in the presence of protease inhibitors (Roche), using a blade homogenizer (Polytron PT3100). Homogenates were ultrasounded, aliquots were made and stored at −80 ° C. Only one aliquot of each sample, containing about 8 mg protein/aliquot, was subjected to lipid extraction. Protein content before lipid extraction was determined by a modified Lowry method (Bio-rad DC Protein Assay).
Margaric acid (C17:0) was added to the samples subjected to lipid extraction as an internal standard and the lipids were extracted with chloroform:methanol (Eggers and Schwudke, 2016). Briefly, 0.75 volumes of the aqueous phase (which already contained the biological sample) were mixed with 2 volumes of chloroform and 1 volume of methanol. This mixture was vortexed for 1 minute and centrifuged at 1000×g for 10 minutes. The lower organic phase was collected and washed with 1 ml of PBS:methanol (1:1,v:v), and the resulting organic phase was dried under argon flow. The film containing the extracted lipids was transmethylated by incubation of the lipid mixture for 90 minutes at 100° C. in 3 ml of methanol:acetyl chloride (10:1, v:v), under an argon atmosphere (Christie, 1993). The resulting fatty acid methyl esters (FAMEs) were extracted with hexane, adding 3 ml of H2O and 1 ml of hexane to the transmethylation reaction, and vortexing the mixture thoroughly. After centrifugation at room temperature (1000×g for 10 min), the upper phase containing the FAMEs was collected and the remaining volume was washed twice with 1 ml of hexane.

Row | Structure (SMILES) | Intracellular HPA levels compared to DHA-H levels (HEK293T under DHA-H, from 24 hours of incubation and 30 μM) | Formation of the metabolite from its 2-hydroxylated prodrug in the presence of oxythiamine (HEK293T, prodrug 100 μM, 24 h, 10 mM oxythiamine) | Levels in the culture medium in the absence of cell culture (30 μM, up to 72 h, no cells)
1 | CC/C=C\C/C=C\C/C=C\C/C=C\C/C=C\CCCCC(=O)O [HPA, (6Z,9Z,12Z,15Z,18Z)-heneicosa-6,9,12,15,18-pentaenoic acid] | significantly higher than those of the prodrug | inhibited | 
2 | CCC=CCC=CCC=CCC=CCC=CCC=CCC(O)C(=O)O (stereo not drawn) [DHA-H, 2-hydroxy-drocosahexaenoic acid] |  |  | remained constant over time
